Data published in patent US6864068B2, “Antifungal proteins” (Syngenta Limited, priority 1995, dated 2005).

Assays:
Assay type in all cases: cell-based
F culmorum [1] = experiment: Specific antifungal activity of Rs-AFP2 isoforms in SMF− and SMF+ media; parameters: IC50 SMF− / IC50 SMF+: unit not given here; conditions: for RELATIVE SPECIFIC ACTIVITY (%) IN MEDIUM SMF+ / RELATIVE SPECIFIC ACTIVITY (%) IN MEDIUM SMF−: 1/IC50 of mutant divided by that of yRs-AFP2 x 100, 48 hour incubation, preliminary tests; for RELATIVE SPECIFIC ACTIVITY (%) IN MEDIUM SMF+: SMF with 1 mM CaCl2 and 50 mM KCl; for RELATIVE SPECIFIC ACTIVITY (%) IN MEDIUM SMF−: low ionic strength medium; for IC50 SMF+ / IC50 SMF−: 72 hours growth, triplicate; for IC50 SMF+: high salt medium (1 mM CaCl2, 50 mM KCl); for IC50 SMF− / effect of substitution on antifungal activity in SMF−, in words: low salt medium; for effect of substitution on antifungal activity in SMF+, in words / effect of substitution on antifungal activity in SMF−, in words: Table 2 tests; for effect of substitution on antifungal activity in SMF+, in words: high salt medium; for relative specific antifungal activity (1/IC50), FIG. 6, in words: medium SMF+, Rs-AFP2 set at 100
Experimental: For each isoform, two independent purifications were carried out and the antifungal activity was determined in duplicate using F culmorum as a test fungus in two different media: a low ionic strength medium called SMF-(Terras et al, 1992, J Biol Chem, 267:15301-15309) and the same medium supplemented with 1 mM CaCl2 and 50 mM KCl called SMF+. The presence of salts in the test medium, especially salts with divalent cations, reduces the specific activity of Rs-AFP2. Seed-purified as well as yeast-expressed wild type Rs-AFP2 served as a control in the assays.
The relative specific activity is expressed as the specific activity of the mutant divided by the specific activity of yRs-AFP2 and multiplied by 100. […] The specific activity was measured in medium SMF−and SMF+.
Deviations are given as standard error of the mean (sem) based on the triplicate experiments. In SMF−, the medium without added salts, most of the derivatives show no decrease or only a minor decrease in antifungal activity, while in SMF+, the medium with added salts, there is a significant decrease in antifungal activity for several Rs-AFP2 isoforms.

F culmorum [2] = experiment: Growth inhibition in SMF with varying CaCl2 or KCl (FIG. 7); conditions: for reduction of antifungal activity by cations, compared with wild-type Rs-AFP2: FIG. 7; for activity in the presence of 100 mM KCl: SMF with 100 mM KCl, FIG. 7, 10 μg/ml; for growth inhibition in the presence of 5mM CaCl2: protein 10 μg/ml, SMF with 5mM CaCl2
Experimental: Their antifungal activity was determined in SMF with increasing Ca^2+ or K^+ concentration and compared with that of plant-derivable wild type Rs-AFP2 (isolated from seed) as well as yeast purified Rs-AFP2. FIG. 7 is a graph of the percentage growth inhibition of F culmorum caused by 10 μg/ml of yeast-purified Rs-AFP2 (SEQ ID NO: 20) (open circles), seed-purified Rs-AFP2 (SEQ ID NO: 77) (closed circles), Rs-AFP2/G9R (SEQ ID NO: 38) (squares) and Rs-AFP2/V39R (SEQ ID NO: 43) (triangles) in a medium consisting of SMF with varying concentrations of CaCl2 (panel A) and KCl (panel B).

Verticillium dahliae = experiment: Antifungal activity in three media differing in ionic strength (Table 3); conditions: for IC50 VALUES, V dahliae, SMF + 1 mM CaCl2/50 mM KCl / IC50 VALUES, V dahliae, SMF + 5 mM CaCl2/50 mM KCl / IC50 VALUES, V dahliae, SMF: 96 hours; for fold activity relative to Rs-AFP2 against V dahliae: SMF plus 1 mM CaCl2 and 50 mM KCl
Experimental: (§1) The antifungal activity of the G9R and V39R Rs-AFP2 isoforms was also assessed on a set of seven different phytopathogenic fungi in three media differing in ionic strength: SMF−, SMF plus 1 mM CaCl2 and 50 mM KCl, and SMF plus 5 mM CaCl2 and 50 mM KCl. The fungi tested were: Alternaria brassicicola, Ascochyta pisi, Botrytis cinerea, Fusarium culmorum, Nectria haematococca, Phoma betae and Verticillium dahliae.

Alternaria brassicicola = experiment: as above; conditions: for IC50 VALUES, A brassicicola, SMF + 1 mM CaCl2/50 mM KCl / IC50 VALUES, A brassicicola, SMF + 5 mM CaCl2/50 mM KCl / IC50 VALUES, A brassicicola, SMF: 72 hours; for activity against A brassicola compared with Rs-AFP2, in words: Table 3 data
Experimental: as §1

Ascochyta pisi = experiment: as above; conditions: for IC50 VALUES, A pisi, SMF + 1 mM CaCl2/50 mM KCl / IC50 VALUES, A pisi, SMF + 5 mM CaCl2/50 mM KCl / IC50 VALUES, A pisi, SMF: 72 hours; for activity against A pisi compared with Rs-AFP2, in words: Table 3 data
Experimental: as §1

Phoma betae = experiment: as above; conditions: 72 hours
Experimental: as §1

Botrytis cinerea = experiment: as above; conditions: for IC50 VALUES, B cinerea, SMF + 1 mM CaCl2/50 mM KCl / IC50 VALUES, B cinerea, SMF + 5 mM CaCl2/50 mM KCl / IC50 VALUES, B cinerea, SMF: 72 hours; for activity against B cinerea compared with Rs-AFP2, in words: Table 3 data
Experimental: as §1

Fusarium culmorum = experiment: as above; conditions: for IC50 VALUES, F culmorum, SMF + 1 mM CaCl2/50 mM KCl / IC50 VALUES, F culmorum, SMF + 5 mM CaCl2/50 mM KCl / IC50 VALUES, F culmorum, SMF: 96 hours; for fold activity relative to Rs-AFP2 against F culmorum: SMF plus 1 mM CaCl2 and 50 mM KCl
Experimental: as §1

Nectria haematococca = experiment: as above; conditions: for IC50 VALUES, N haematococca, SMF + 1 mM CaCl2/50 mM KCl / IC50 VALUES, N haematococca, SMF + 5 mM CaCl2/50 mM KCl / IC50 VALUES, N haematococca, SMF: 72 hours; for fold activity relative to Rs-AFP2 against N haematococca: SMF plus 1 mM CaCl2 and 50 mM KCl
Experimental: as §1

Substance	RELATIVE SPECIFIC ACTIVITY (%) IN MEDIUM SMF+ (F culmorum [1]) [%]	RELATIVE SPECIFIC ACTIVITY (%) IN MEDIUM SMF− (F culmorum [1]) [%]	IC50 SMF+ (F culmorum [1])	IC50 SMF− (F culmorum [1])	antifungal activity in SMF+ relative to wild-type Rs-AFP2 (F culmorum [1])	effect of substitution on antifungal activity in SMF+, in words (F culmorum [1])	effect of substitution on antifungal activity in SMF−, in words (F culmorum [1])	relative specific antifungal activity (1/IC50), FIG. 6, in words (F culmorum [1])	reduction of antifungal activity by cations, compared with wild-type Rs-AFP2 (F culmorum [2])	activity in the presence of 100 mM KCl (F culmorum [2])	growth inhibition in the presence of 5mM CaCl2 (F culmorum [2])	IC50 VALUES, V dahliae, SMF + 1 mM CaCl2/50 mM KCl (Verticillium dahliae) [µg/mL]	IC50 VALUES, V dahliae, SMF + 5 mM CaCl2/50 mM KCl (Verticillium dahliae) [µg/mL]	fold activity relative to Rs-AFP2 against V dahliae (Verticillium dahliae)	IC50 VALUES, V dahliae, SMF (Verticillium dahliae) [µg/mL]	IC50 VALUES, A brassicicola, SMF + 1 mM CaCl2/50 mM KCl (Alternaria brassicicola) [µg/mL]	IC50 VALUES, A brassicicola, SMF + 5 mM CaCl2/50 mM KCl (Alternaria brassicicola) [µg/mL]	IC50 VALUES, A brassicicola, SMF (Alternaria brassicicola) [µg/mL]	activity against A brassicola compared with Rs-AFP2, in words (Alternaria brassicicola)	IC50 VALUES, A pisi, SMF + 1 mM CaCl2/50 mM KCl (Ascochyta pisi) [µg/mL]	further results
yRs-AFP2/V39R: yeast-expressed Rs-AFP2 isoform, position 39 valine to arginine (QKLCQRPSGTWSGVCGNNNACKNQCIRLEKARHGSCNYRFPAHKCICYFPC; listed as Raphanus sativus)	114	74	3.2	4.0	approximately two-fold higher	increased antifungal activity	little effect on the antifungal activity	particularly active	less reduced by the presence of cations	fully inhibitory	complete inhibition	2.3	6.0	five-fold more active	0.4	50	>100	2.5	comparable to the activity of Rs-AFP2	>50	antifungal activity compared with yRs-AFP2, in words (F culmorum [1]; Table 1 tests, SMF− and SMF+): maintain their antifungal activity; IC50 VALUES, A pisi, SMF + 5 mM CaCl2/50 mM KCl (Ascochyta pisi): >100 µg/mL; IC50 VALUES, A pisi, SMF (Ascochyta pisi): 2.0 µg/mL; activity against A pisi compared with Rs-AFP2, in words (Ascochyta pisi): comparable to the activity of Rs-AFP2; IC50 VALUES, P betae, SMF + 1 mM CaCl2/50 mM KCl (Phoma betae): 40.0 µg/mL; IC50 VALUES, P betae, SMF + 5 mM CaCl2/50 mM KCl (Phoma betae): 70.0 µg/mL; IC50 VALUES, P betae, SMF (Phoma betae): 1.4 µg/mL; IC50 VALUES, B cinerea, SMF + 1 mM CaCl2/50 mM KCl (Botrytis cinerea): >50 µg/mL; IC50 VALUES, B cinerea, SMF + 5 mM CaCl2/50 mM KCl (Botrytis cinerea): >100 µg/mL; IC50 VALUES, B cinerea, SMF (Botrytis cinerea): 1.6 µg/mL; activity against B cinerea compared with Rs-AFP2, in words (Botrytis cinerea): comparable to the activity of Rs-AFP2; IC50 VALUES, F culmorum, SMF + 1 mM CaCl2/50 mM KCl (Fusarium culmorum): 2.3 µg/mL; IC50 VALUES, F culmorum, SMF + 5 mM CaCl2/50 mM KCl (Fusarium culmorum): 7.0 µg/mL; fold activity relative to Rs-AFP2 against F culmorum (Fusarium culmorum): approximately two-fold more active; IC50 VALUES, F culmorum, SMF (Fusarium culmorum): 2.2 µg/mL; IC50 VALUES, N haematococca, SMF + 1 mM CaCl2/50 mM KCl (Nectria haematococca): 9.0 µg/mL; IC50 VALUES, N haematococca, SMF + 5 mM CaCl2/50 mM KCl (Nectria haematococca): 62.0 µg/mL; fold activity relative to Rs-AFP2 against N haematococca (Nectria haematococca): five-fold more active; IC50 VALUES, N haematococca, SMF (Nectria haematococca): 2.1 µg/mL
yRs-AFP2/G9R: yeast-expressed Rs-AFP2 isoform, position 9 glycine to arginine (QKLCQRPSRTWSGVCGNNNACKNQCIRLEKARHGSCNYVFPAHKCICYFPC; listed as Raphanus sativus)	285	116	3.3	3.0	approximately two-fold higher	increased antifungal activity	little effect on the antifungal activity	particularly active	less reduced by the presence of cations	fully inhibitory	complete inhibition	4.0	17.0	approximately three-fold more active	0.5	>50	>100	2.6	comparable to the activity of Rs-AFP2	>50	antifungal activity compared with yRs-AFP2 in high salt (SMF+), in words (F culmorum [1]; Table 1 tests): approximately three times more active than yRs-AFP2; antifungal activity compared with yRs-AFP2 in low salt (SMF−), in words (F culmorum [1]; Table 1 tests): not so significantly different in low salt; IC50 VALUES, A pisi, SMF + 5 mM CaCl2/50 mM KCl (Ascochyta pisi): >100 µg/mL; IC50 VALUES, A pisi, SMF (Ascochyta pisi): 1.6 µg/mL; activity against A pisi compared with Rs-AFP2, in words (Ascochyta pisi): comparable to the activity of Rs-AFP2; IC50 VALUES, P betae, SMF + 1 mM CaCl2/50 mM KCl (Phoma betae): 2.50 µg/mL; IC50 VALUES, P betae, SMF + 5 mM CaCl2/50 mM KCl (Phoma betae): >100 µg/mL; IC50 VALUES, P betae, SMF (Phoma betae): 2.0 µg/mL; IC50 VALUES, B cinerea, SMF + 1 mM CaCl2/50 mM KCl (Botrytis cinerea): >50 µg/mL; IC50 VALUES, B cinerea, SMF + 5 mM CaCl2/50 mM KCl (Botrytis cinerea): >100 µg/mL; IC50 VALUES, B cinerea, SMF (Botrytis cinerea): 1.9 µg/mL; activity against B cinerea compared with Rs-AFP2, in words (Botrytis cinerea): comparable to the activity of Rs-AFP2; IC50 VALUES, F culmorum, SMF + 1 mM CaCl2/50 mM KCl (Fusarium culmorum): 1.5 µg/mL; IC50 VALUES, F culmorum, SMF + 5 mM CaCl2/50 mM KCl (Fusarium culmorum): 7.2 µg/mL; fold activity relative to Rs-AFP2 against F culmorum (Fusarium culmorum): approximately three-fold more active; IC50 VALUES, F culmorum, SMF (Fusarium culmorum): 2.2 µg/mL; IC50 VALUES, N haematococca, SMF + 1 mM CaCl2/50 mM KCl (Nectria haematococca): 16.0 µg/mL; IC50 VALUES, N haematococca, SMF + 5 mM CaCl2/50 mM KCl (Nectria haematococca): 100 µg/mL; fold activity relative to Rs-AFP2 against N haematococca (Nectria haematococca): approximately three-fold more active; IC50 VALUES, N haematococca, SMF (Nectria haematococca): 2.0 µg/mL
